Test results reported in PMC6479757, “Coralmycin Derivatives with Potent Anti-Gram Negative Activity Produced by the Myxobacteria Corallococcus coralloides M23” (Molecules, 2019).
In brackets after ≈: the same amount, converted by molar mass. Like-named read-outs stand apart in the source and are kept apart here.

What was measured:
[1] = molecular target: T1, E. coli DNA gyrase (Escherichia coli, UniProt P0AES4+P0AES6); assay: DNA gyrase supercoiling assay; assay type: biochemical; settings: relaxed plasmid, 37 °C for 30 min, agarose gel band densities; read-out: IC50, inhibition of the supercoiling activity of E. coli DNA gyrase
T1 construct: purchased TopoGEN TG2001G
Experimental: The inhibitory activities of coralmycins on the supercoiling activity of DNA gyrase were investigated using a ‘Purified E. coli DNA Gyrase Drug Screening Kit’ (TopoGEN #TG2001G, Buena Vista, CO, USA). […] The reaction was terminated by the addition of 2 μL of 10% (w/v) SDS and 2 μL of 10× DNA gel loading dye (bromophenol blue). Then, 20 μL of chloroform:isoamyl alcohol (24:1 mixture) was added, and the mixture was vortexed and then centrifuged. The samples in the blue phase were run on 1% (w/v) agarose gel and were visualized using ethidium bromide. All reactions were performed in triplicate. To calculate the IC50 values, the band densities were measured using ImageJ (National Institutes of Health, Bethesda, Maryland, MD, USA).

[2] = system: Enterococcus faecalis KCTC 5191; assay: Antibacterial susceptibility, broth microdilution MIC; assay type: cell-based; settings: KCTC5191, 24-h incubation at 37 °C
Experimental: (§1) Whole-cell antimicrobial activities were determined using a broth microdilution method described previously. Most of the test strains were grown to mid-log phase in Mueller–Hinton broth and diluted 1,000-fold in the same medium. Cells (10^5/mL) were dispensed at 0.2 mL/well in 96-well microtiter plates. Streptococcus pneumonia and Acinetobacter baumanii were grown in Todd–Hewitt medium and nutrient broth, respectively. […]. Cells were treated with 0.05% DMSO as a vehicle control. The MICs were determined in triplicate by serial two-fold dilutions of the test compounds. […] Bacterial growth was determined by measuring the absorption at 650 nm using a microtiter enzyme-linked immunosorbent assay (ELISA) reader (Molecular Devices Corporation, Sunnyvale, CA, USA).

[3] = system: Klebsiella pneumoniae KCTC 22057; assay: as above; assay type: cell-based; settings: for MIC: KCTC22057, Klebsiella pneumoniae KCTC 22057, 24-h incubation at 37 °C; for growth inhibition of K. pneumonia: at 32 μg/mL
Experimental: as §1

[4] = system: Acinetobacter baumannii KCTC 2508; assay: as above; assay type: cell-based; settings: KCTC2508, nutrient broth, 24-h incubation at 37 °C
Experimental: as §1

[5] = system: QRSA CCARM 3519; assay: as above; assay type: cell-based; settings: Staphylococcus aureus, CCARM3519; QRSA CCARM 3519; 24-h incubation at 37 °C; read-out: MIC
Experimental: as §1

[6] = system: E. coli CCARM 1356; assay: as above; assay type: cell-based; settings: Escherichia coli, CCARM1356, 24-h incubation at 37 °C
Experimental: as §1

[7] = system: Pseudomonas aeruginosa KCTC 2004; assay: as above; assay type: cell-based; settings: for MIC: KCTC2004, Pseudomonas aeruginosa KCTC 2004, 24-h incubation at 37 °C; for antibacterial activities against P. aeruginosa: in words
Experimental: as §1

[8] = system: E. coli KCTC 1682; assay: as above; assay type: cell-based; settings: Escherichia coli
Experimental: as §1

[9] = system: MRSA CCARM 3167; assay: as above; assay type: cell-based; settings: Staphylococcus aureus, 24-h incubation at 37 °C
Experimental: as §1

[10] = system: QRSA CCARM 3505; assay: as above; assay type: cell-based; settings: Staphylococcus aureus, CCARM3505; QRSA CCARM 3505; 24-h incubation at 37 °C; read-out: MIC
Experimental: as §1

[11] = system: MRSA CCARM 3506; assay: as above; assay type: cell-based; settings: Staphylococcus aureus, 24-h incubation at 37 °C
Experimental: as §1

[12] = system: Streptococcus pneumonia KCTC 5412; assay: as above; assay type: cell-based; settings: Streptococcus pneumoniae, KCTC5412, Todd–Hewitt medium, 24-h incubation at 37 °C
Experimental: as §1

[13] = system: Staphylococcus aureus RN 4220; assay: as above; assay type: cell-based; settings: RN4220, 24 h
Experimental: (§2) Whole-cell antimicrobial activities were determined using a broth microdilution method described previously. Most of the test strains were grown to mid-log phase in Mueller–Hinton broth and diluted 1,000-fold in the same medium. Cells (10^5/mL) were dispensed at 0.2 mL/well in 96-well microtiter plates. Streptococcus pneumonia and Acinetobacter baumanii were grown in Todd–Hewitt medium and nutrient broth, respectively. […] Cells were treated with 0.05% DMSO as a vehicle control. The MICs were determined in triplicate by serial two-fold dilutions of the test compounds. […] Bacterial growth was determined by measuring the absorption at 650 nm using a microtiter enzyme-linked immunosorbent assay (ELISA) reader (Molecular Devices Corporation, Sunnyvale, CA, USA).

[14] = system: tested bacterial strains; assay: Antibacterial activity against all tested strains; assay type: cell-based; settings: at 32 μg/mL
Experimental: as §2

[15] = system: Gram-negative bacteria; assay: Antibacterial activity against Gram-negative bacteria; assay type: cell-based; settings: at 32 μg/mL
Experimental: as §2

[16] = KCTC1682, 24-h incubation at 37 °C, Table 6 and Table S1, read-out: MIC
[17] = KCTC1682, Table 7, read-out: MIC, antibacterial activity on E. coli KCTC 1682
[18] = KCTC1682, 24 h, Table 7, read-out: MIC, antibacterial activity on E. coli KCTC 1682

T1 sequence (P0AES4 whole entry, one chain of several): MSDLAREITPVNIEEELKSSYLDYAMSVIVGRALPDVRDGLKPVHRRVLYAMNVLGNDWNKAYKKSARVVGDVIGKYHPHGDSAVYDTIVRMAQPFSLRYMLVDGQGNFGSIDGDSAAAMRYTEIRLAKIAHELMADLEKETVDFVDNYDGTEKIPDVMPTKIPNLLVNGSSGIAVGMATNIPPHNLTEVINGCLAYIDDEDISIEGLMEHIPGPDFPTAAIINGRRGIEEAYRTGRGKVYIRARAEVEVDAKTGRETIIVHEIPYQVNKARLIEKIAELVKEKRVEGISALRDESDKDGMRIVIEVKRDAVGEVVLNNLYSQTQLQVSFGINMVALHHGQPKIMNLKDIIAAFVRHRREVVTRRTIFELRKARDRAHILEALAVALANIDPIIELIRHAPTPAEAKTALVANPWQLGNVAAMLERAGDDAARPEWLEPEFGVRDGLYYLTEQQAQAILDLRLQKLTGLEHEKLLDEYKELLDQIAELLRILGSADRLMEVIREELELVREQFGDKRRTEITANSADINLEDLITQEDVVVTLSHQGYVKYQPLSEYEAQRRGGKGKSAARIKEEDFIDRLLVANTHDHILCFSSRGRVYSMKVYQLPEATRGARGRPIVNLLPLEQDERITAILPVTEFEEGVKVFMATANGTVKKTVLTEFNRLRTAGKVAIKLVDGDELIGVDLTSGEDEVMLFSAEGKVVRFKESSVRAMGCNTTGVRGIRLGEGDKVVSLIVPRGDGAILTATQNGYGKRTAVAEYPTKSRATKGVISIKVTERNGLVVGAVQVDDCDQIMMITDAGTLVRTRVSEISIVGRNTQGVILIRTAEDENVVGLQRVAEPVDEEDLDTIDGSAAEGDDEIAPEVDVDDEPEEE

| SMILES | IC50 [1] | MIC [2] | MIC [3] | MIC [4] | MIC [5] | MIC [6] | MIC [7] | MIC [8, 16] | MIC [8, 17] | MIC [9] | MIC [10] | MIC [11] | MIC [12] | MIC [13] | antibacterial activities against any of the tested bacterial strains [14] | growth inhibition of K. pneumonia [3] | growth inhibition of P. aeruginosa ([7]; at 32 μg/mL) | antibacterial activities against P. aeruginosa [7] | MIC [8, 18] | antibacterial activity against Gram-negative bacteria [15] |
| --- | --- | --- | --- | --- | --- | --- | --- | --- | --- | --- | --- | --- | --- | --- | --- | --- | --- | --- | --- | --- |
| CO[C@@H](C(N)=O)[C@H](NC(=O)c1ccc(NC(=O)c2ccc([N+](=O)[O-])cc2)cc1)C(=O)Nc1ccc(C(=O)Nc2ccc(C(=O)Nc3ccc(C(=O)O)cc3OC(C)C)c(O)c2OC(C)C)cc1 [Compound 11, cystobactamid 919-2, reference compound] | 950 nM | 0.25 µg/mL (≈ 0.272 µM) | 4 µg/mL (≈ 4.35 µM) | 2 µg/mL (≈ 2.17 µM) | 1 µg/mL (≈ 1.09 µM) | 2 µg/mL (≈ 2.17 µM) | 4 µg/mL (≈ 4.35 µM) | 1 µg/mL (≈ 1.09 µM) | 1 µg/mL (≈ 1.09 µM) | 0.25 µg/mL (≈ 0.272 µM) | 1 µg/mL (≈ 1.09 µM) | 0.25 µg/mL (≈ 0.272 µM) | 1 µg/mL (≈ 1.09 µM) | 0.125 µg/mL (≈ 0.136 µM) |  |  |  |  |  |  |
| CO[C@@H](C(N)=O)[C@H](NC(=O)c1ccc(N)cc1)C(=O)Nc1ccc(C(=O)Nc2ccc(C(=O)Nc3ccc(C(=O)O)cc3OC(C)C)c(O)c2OC(C)C)cc1 [Compound 3, Coralmycin E] | 39100 nM | > 32 µg/mL | > 32 µg/mL | > 32 µg/mL | > 32 µg/mL | > 32 µg/mL | > 32 µg/mL | > 32 µg/mL | > 32 µg/mL | > 32 µg/mL | > 32 µg/mL | > 32 µg/mL | > 32 µg/mL | > 32 µg/mL | no antibacterial activities |  |  |  |  |  |
| CO[C@@H](C(N)=O)[C@H](NC(=O)c1ccc(NC(=O)c2ccc(N)cc2)cc1)C(=O)Nc1ccc(C(=O)Nc2ccc(C(=O)Nc3ccc(C(=O)O)cc3OC(C)C)c(O)c2OC(C)C)cc1 [Compound 2, Coralmycin D] | 510 nM | 1 µg/mL (≈ 1.12 µM) | > 32 µg/mL | 4 µg/mL (≈ 4.49 µM) | 1 µg/mL (≈ 1.12 µM) | 1 µg/mL (≈ 1.12 µM) | > 32 µg/mL | 1 µg/mL (≈ 1.12 µM) | 1 µg/mL (≈ 1.12 µM) | 0.5 µg/mL (≈ 0.562 µM) | 1 µg/mL (≈ 1.12 µM) | 0.5 µg/mL (≈ 0.562 µM) | 2 µg/mL (≈ 2.25 µM) | 0.25 µg/mL (≈ 0.281 µM) |  | did not inhibit the growth | did not inhibit the growth |  |  |  |
| CCOc1cc(C(=O)O)ccc1NC(=O)c1ccc(NC(=O)c2ccc(NC(=O)[C@@H](NC(=O)c3ccc(NC(=O)c4ccc([N+](=O)[O-])cc4)cc3)[C@@H](OC)C(N)=O)cc2)c(OC(C)C)c1O [Compound 9, cystobactamid 905-2] | 130 nM | 0.5 µg/mL (≈ 0.552 µM) | > 32 µg/mL | 0.5 µg/mL (≈ 0.552 µM) | 1 µg/mL (≈ 1.1 µM) | 1 µg/mL (≈ 1.1 µM) | 8 µg/mL (≈ 8.83 µM) | 0.5 µg/mL (≈ 0.552 µM) |  | 0.25 µg/mL (≈ 0.276 µM) | 2 µg/mL (≈ 2.21 µM) | 0.25 µg/mL (≈ 0.276 µM) | 1 µg/mL (≈ 1.1 µM) | 0.125 µg/mL (≈ 0.138 µM) |  | did not inhibit the growth |  | weak antibacterial activities | 0.25 µg/mL (≈ 0.276 µM) |  |
| CO[C@@H](C(=O)O)[C@H](NC(=O)c1ccc(NC(=O)c2ccc([N+](=O)[O-])cc2)cc1)C(=O)Nc1ccc(C(=O)Nc2ccc(C(=O)Nc3ccc(C(=O)O)cc3OC(C)C)c(O)c2OC(C)C)cc1 [Compound 1, Coralmycin C] | 420 nM | 8 µg/mL (≈ 8.69 µM) | > 32 µg/mL | > 32 µg/mL | 4 µg/mL (≈ 4.34 µM) | > 32 µg/mL | > 32 µg/mL | > 32 µg/mL | > 32 µg/mL | 4 µg/mL (≈ 4.34 µM) | 4 µg/mL (≈ 4.34 µM) | 4 µg/mL (≈ 4.34 µM) | 4 µg/mL (≈ 4.34 µM) | 4 µg/mL (≈ 4.34 µM) |  |  |  |  |  | no antibacterial activity |
| COc1cc(C(=O)O)ccc1NC(=O)c1ccc(NC(=O)c2ccc(NC(=O)[C@@H](NC(=O)c3ccc(NC(=O)c4ccc([N+](=O)[O-])cc4)cc3)[C@@H](OC)C(N)=O)cc2)c(OC(C)C)c1O [Compound 8, cystobactamid 891-2] | 50 nM | 1 µg/mL (≈ 1.12 µM) | > 32 µg/mL | 1 µg/mL (≈ 1.12 µM) | 1 µg/mL (≈ 1.12 µM) | 0.5 µg/mL (≈ 0.561 µM) | 4 µg/mL (≈ 4.49 µM) | 0.25 µg/mL (≈ 0.28 µM) |  | 0.5 µg/mL (≈ 0.561 µM) | 2 µg/mL (≈ 2.24 µM) | 0.125 µg/mL (≈ 0.14 µM) | 2 µg/mL (≈ 2.24 µM) | 0.25 µg/mL (≈ 0.28 µM) |  | did not inhibit the growth |  | weak antibacterial activities | 0.25 µg/mL (≈ 0.28 µM) |  |
